Laboratory results published in patent US12030896B2, “PIKfyve inhibitors” (Mayo Foundation for Medical Education and Research, priority 2018, dated 2024).
“Also recorded” adds a separate entry of the source.

Legend:
[1] = test system: 468 kinases; experiment: Kinase selectivity panel (Treespot dendrogram); assay type: binding; conditions: for number of kinases blocked to 1% activity level / number of kinases blocked to 10% activity level / number of kinases blocked to 35% activity level: 5000 nM; for selectivity for PIKfyve: comparison of Example 1, Example 3 and apilimod
Description: (§1) In contrast, 50 nM Apilimod inhibited two kinases to 1% or 10%, and 3 kinases to 35% of control. To examine non-specific binding at higher concentrations, Example 1, Example 3, and Apilimod were tested at 5000 nM. […] PIKfyve is represented at the bottom left of each dendrogram.

[2] = test system: cells in culture; experiment: Vacuolization activity in cells in culture; assay type: cell-based
Source text: As used herein the term “EC50 (μM)” refers to the μM concentration of a compound that is required for 50% activity in a vacuolization assay.
Example 2 is a biotinylated derivative of the compound of Example 1.

[3] = test system: Glioblastoma (T98G, U251) or colorectal cancer cell lines (HT29, RKO, HCT116); experiment: Killing of glioblastoma and colorectal cancer cell lines by Example 3; assay type: cell-based
Description: Experiments were performed using DMEM-based media for the glioblastoma lines and RMPI-based media for the colorectal lines.

[4] = test system: U251 glioblastoma cell; experiment: Cell killing in combination with vemurafenib; assay type: cell-based, human
Description: A 25 mM stock of vemurafenib (obtained from Selleckchem) in DMSO was diluted to 2× the indicated concentration into the cell suspension immediately prior to plating the cell suspension onto the pre-diluted Example 1 or Example 3, to result in a final 1× concentration of both compounds.
See FIG. 13 for showing of U251 glioblastoma cell killing by Example 1 alone or in the presence of 10 μM vemurafenib over a 72 hour time course.

[5] = target: PIKfyve (Homo sapiens, UniProt Q9Y2I7); experiment: Kinase panel screen: inhibition of PIKfyve; assay type: binding; conditions: 50 nM
PIKfyve, sequence (Q9Y2I7 whole entry): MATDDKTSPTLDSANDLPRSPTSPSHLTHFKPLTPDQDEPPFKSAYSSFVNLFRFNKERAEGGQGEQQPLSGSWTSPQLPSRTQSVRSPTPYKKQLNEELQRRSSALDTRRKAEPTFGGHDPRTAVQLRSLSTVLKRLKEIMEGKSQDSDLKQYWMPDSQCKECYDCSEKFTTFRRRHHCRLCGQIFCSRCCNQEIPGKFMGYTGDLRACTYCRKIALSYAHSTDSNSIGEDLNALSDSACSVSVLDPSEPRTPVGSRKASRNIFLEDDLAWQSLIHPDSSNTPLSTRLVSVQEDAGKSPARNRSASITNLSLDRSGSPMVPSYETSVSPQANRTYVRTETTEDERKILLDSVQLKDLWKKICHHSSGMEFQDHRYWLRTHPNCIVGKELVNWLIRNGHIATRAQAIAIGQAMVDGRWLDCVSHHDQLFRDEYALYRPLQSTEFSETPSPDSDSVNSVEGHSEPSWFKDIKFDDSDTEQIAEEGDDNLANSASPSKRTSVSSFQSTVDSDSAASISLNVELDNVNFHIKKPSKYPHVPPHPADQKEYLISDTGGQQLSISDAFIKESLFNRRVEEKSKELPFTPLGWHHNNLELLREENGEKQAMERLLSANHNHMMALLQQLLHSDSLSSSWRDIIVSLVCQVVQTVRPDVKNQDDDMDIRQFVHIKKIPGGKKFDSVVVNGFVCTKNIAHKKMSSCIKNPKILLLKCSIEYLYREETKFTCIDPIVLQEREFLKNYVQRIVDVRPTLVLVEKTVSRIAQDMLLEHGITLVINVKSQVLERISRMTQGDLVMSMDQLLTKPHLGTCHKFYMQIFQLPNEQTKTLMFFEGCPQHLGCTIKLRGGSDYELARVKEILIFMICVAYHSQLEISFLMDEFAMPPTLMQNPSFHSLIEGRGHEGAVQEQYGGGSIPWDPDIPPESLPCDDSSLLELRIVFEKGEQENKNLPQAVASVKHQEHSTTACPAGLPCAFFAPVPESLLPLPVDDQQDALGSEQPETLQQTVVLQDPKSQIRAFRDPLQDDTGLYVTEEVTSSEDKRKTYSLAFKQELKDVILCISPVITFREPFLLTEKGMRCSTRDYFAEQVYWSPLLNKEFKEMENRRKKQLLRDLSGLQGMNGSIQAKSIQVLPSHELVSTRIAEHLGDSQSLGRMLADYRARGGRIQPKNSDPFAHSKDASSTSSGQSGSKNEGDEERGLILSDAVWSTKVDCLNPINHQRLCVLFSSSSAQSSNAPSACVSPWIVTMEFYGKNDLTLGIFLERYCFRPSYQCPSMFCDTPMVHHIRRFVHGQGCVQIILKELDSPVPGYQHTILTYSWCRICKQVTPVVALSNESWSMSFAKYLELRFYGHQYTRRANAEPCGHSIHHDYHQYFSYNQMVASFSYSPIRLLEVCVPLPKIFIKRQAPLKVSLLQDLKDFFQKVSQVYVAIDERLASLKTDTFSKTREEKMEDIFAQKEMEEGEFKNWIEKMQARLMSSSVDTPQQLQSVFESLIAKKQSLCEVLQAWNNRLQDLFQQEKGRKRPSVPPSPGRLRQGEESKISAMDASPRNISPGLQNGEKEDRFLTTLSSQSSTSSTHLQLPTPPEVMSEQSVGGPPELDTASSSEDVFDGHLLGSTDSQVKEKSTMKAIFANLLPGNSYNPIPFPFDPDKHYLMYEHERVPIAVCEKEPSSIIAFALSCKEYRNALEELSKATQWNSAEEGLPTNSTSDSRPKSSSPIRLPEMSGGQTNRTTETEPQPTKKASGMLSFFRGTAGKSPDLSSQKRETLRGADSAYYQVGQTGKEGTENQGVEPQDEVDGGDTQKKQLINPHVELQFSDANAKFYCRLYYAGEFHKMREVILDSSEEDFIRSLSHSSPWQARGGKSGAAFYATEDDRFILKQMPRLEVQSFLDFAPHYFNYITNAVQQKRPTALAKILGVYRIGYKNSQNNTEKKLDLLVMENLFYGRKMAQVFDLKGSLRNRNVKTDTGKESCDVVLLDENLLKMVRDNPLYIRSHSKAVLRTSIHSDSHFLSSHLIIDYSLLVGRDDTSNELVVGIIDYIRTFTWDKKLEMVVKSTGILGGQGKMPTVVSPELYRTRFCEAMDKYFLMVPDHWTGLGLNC
Description: No other kinase was blocked to that extent by 50 nM of Example 1, indicating its high degree of selectivity.
as §1

[6] = test system: Human colorectal carcinoma cell lines (HCT116, HT29); experiment: Killing of colorectal carcinoma cell lines (Cell-titer glow); assay type: cell-based; conditions: HCT116, HT29 vs brain tumor cell lines
Description: Human colorectal carcinoma cell lines were similarly tested for killing by the compound. (ATP activity is defined by use of the Cell-titer glow luminescence assay). […] All experiments were performed using RPMI media (Life Technologies) as the base formulation for “complete” media. HT29 cells require physical scraping in addition to trypsin to dissociate from tissue culture plastic.

[7] = test system: Human osteosarcoma cells (U2OS, 143B, MG63, and SAOS2) and human pancreatic cancer cells (Panc-1, CFPAC); experiment: Killing of osteosarcoma and pancreatic cell lines (Alamar Blue); assay type: cell-based; conditions: 72 hrs
Description: Human osteosarcoma cells (U2OS, 143B, MG63, and SAOS2) and human pancreatic cancer cells (Panc-1, CFPAC) were similarly tested for killing by the compound, as shown in FIG. 5. All experiments in FIG. 5 were performed using DMEM:F12 media (Life Technologies) as the base formulation for “complete” media for experiments with 143B and MG63 cells. Also, Alamar Blue was used to assay the relative number of viable cells per well after 72 hrs of growth. For these assays, growth media was removed from the cells, and replaced with fresh (“complete) media containing Alamar Blue reagent (Life Technologies) diluted 1:10. Plates were incubated at 5% CO2, 37° C. for 40 min then removed from the incubator and fluorescence was measured using a Synergy H1 microplate reader (Excitation: 560 nm Emission: 590 nm). Values represent raw photo counts minus the value of a well with Alamar Blue reagent (1:10 in medium) but no cells.

[8] = test system: RKO (colon cancer) cells; experiment: LC3 western blotting (autophagy); assay type: cell-based; conditions: 1 μM
[9] = test system: U251 or RKO cells; experiment: Cathepsin D western blotting; assay type: cell-based; conditions: 18 hours
Description: Macroautophagy (hereafter “autophagy”) is a process that requires precise fusion of endosomes, autophagosomes, and lysosomes. Lysates from cells treated with Example 1 were prepared and probed by western blotting for LC3-I and LC3-II. Increased levels of LC3-II and increased p62 (sequestesome) were found showing the increased drive to undergo autophagy, in the face of inability to complete the process (i.e. ineffective autophagy). Lysosomes are the final destination of proteins destined for degradation by autophagy, and proteolysis in this organelle depends upon cathepsins among other enzymes.
U251 or RKO cells were treated with Example 1 at the indicated concentrations for 18 hours, and then analyzed by western blotting for cathepsin D and actin (loading control).
U251 or RKO cells were plated onto 10 cm tissue culture dishes and grown in the conditions described previously. When cells were growing in log phase and reached approximately 60% confluency, Example 1 was diluted into the growth media at the indicated concentrations. Cells were incubated at 5% CO2, 37° C. for 18 hr, then washed and harvested as described previously. Cells were pelleted by centrifugation at 180×g, resuspended in 20 mL of 1×PBS pH 7.4, and centrifuged again. […]

[10] = test system: E2409 murine lymphoma cells; experiment: E2409 lymphoma flank tumor survival study; assay type: in vivo, Nude mice; conditions: 1 mg daily IP injection vs vehicle only; p<0.02
Description: Nude mice were injected in the flank with 1 million E2409 murine lymphoma cells, and allowed to grow for 4 days, at which point a small detectable lump was observed on each mouse. Mice were injected daily by IP injection with 100 μl of vehicle (10% dmso, 20% cremaphor, 70% water) with or without 1 mg of the test compound. Mice were euthanized when tumor size exceeded 1500 mm^3.

[11] = Solubility; assay type: physicochemical
Description: The compound has a molecular weight of 428.5. It is soluble in DMSO. In addition, solutions of at least 10 mg/ml can be prepared using a mixture of DMSO (10%), cremaphor (20%), and water (70%).

| Structure (SMILES) | number of kinases blocked to 1% activity level [1] | number of kinases blocked to 10% activity level [1] | number of kinases blocked to 35% activity level [1] | selectivity for PIKfyve [1] | EC50 [2] [nM] | sensitivity to killing [3] | killing U251 in combination with vemurafenib [4] | inhibition at 0.05 µM [5] [%] | number of kinases blocked to 1% of control ([1]; 50 nM, 468 kinases) | number of kinases blocked to 10% of control ([1]; 50 nM, 468 kinases) | number of kinases blocked to 35% of control ([1]; 50 nM, 468 kinases) | sensitivity to compound-induced death [6] | cell killing [7] | induction of LC3 [8] | mature cleaved cathepsin [9] | uncleaved precursor cathepsin D [9] | cell killing on addition of vemurafenib ([4]; low concentrations of Example 1 (e.g., 0.5 μM) + 10 μM vemurafenib, 72 hour) | survival [10] | solubility in DMSO ([11]; DMSO) | concentration of solutions that can be prepared ([11]; DMSO (10%), cremaphor (20%), and water (70%)) |
| --- | --- | --- | --- | --- | --- | --- | --- | --- | --- | --- | --- | --- | --- | --- | --- | --- | --- | --- | --- | --- |
| Cc1ccc(Nc2nc(N/N=C/c3c[nH]c4ccccc34)cc(N3CCOCC3)n2)cc1 [Example 3, (E)-4-(2-((1H-indol-3-yl)methylene)hydrazinyl)-6-morpholino-N-(p-tolyl)pyrimidin-2-amine] | 1 | 1 | 4 | more selective; also recorded: highest selectivity | 4 | sensitive to killing | synergistic | – | – | – | – | – | – | – | – | – | – | – | – | – |
| Cc1ccc(Nc2nc(N/N=C/c3c[nH]c4ccccc34)nc(N3CCOCC3)n2)cc1 [Example 1, (E)-4-(2-((1H-indol-3-yl)methylene)hydrazinyl)-6-morpholino-N-(p-tolyl)-1,3,5-triazin-2-amine] | 2 | 4 | 11 | more selective | – | – | – | > 99 | 1 | did not block other kinases | did not block other kinases | more sensitive | killing | dramatic and rapid induction | relative loss | accumulation | significantly improves cell killing | prolonged survival | soluble | at least 10 mg/ml |
